# Laboratory results reported in ChEMBL document CHEMBL1152321, “Recent advances in the chemistry and biology of new generation taxoids” (J Nat Prod, 2009).
# What was measured:
# [1] = Cytotoxicity against P-glycoprotein deficient wild type human LCC-6 cells after 72 hrs; format: functional, cell-based; details: LCC-6, 72 h
# [2] = Resistance factor, ratio of IC50 for human LCC-6 cells expressing P-glycoprotein to IC50 for P-glycoprotein deficient wild type human LCC-6 cells; format: functional; parameters: reference not given here
# [3] = tested on: MCF7; test: Cytotoxicity against human MCF7 cells expressing P-glycoprotein after 72 hrs; format: functional, cell-based; details: MCF7, 72 h
# [4] = tested on: MCF7; test: Resistance factor, ratio of IC50 for human MCF7 cells expressing P-glycoprotein to IC50 for P-glycoprotein deficient wild type human MCF7 cells; format: functional
# [5] = tested on: MCF7; test: Cytotoxicity against P-glycoprotein deficient wild type human MCF7 cells after 72 hrs; format: functional, cell-based; details: MCF7, 72 h
# [6] = tested on: HT-29; test: Cytotoxicity against human HT-29 cells after 72 hrs; format: functional, cell-based; details: HT-29, 72 h
SMILES,IC50 [1] [nM],Ratio [2],further results
CCC(=O)O[C@H]1C(=O)[C@@]2(C)[C@H]([C@H](OC(=O)c3cccc(Cl)c3)[C@]3(O)C[C@H](OC(=O)[C@H](O)[C@H](C=C(C)C)NC(=O)OC(C)(C)C)C(C)=C1C3(C)C)[C@]1(OC(C)=O)CO[C@@H]1C[C@@H]2O,0.8,,
CCC(=O)O[C@H]1C(=O)[C@@]2(C)[C@H]([C@H](OC(=O)c3cccc(F)c3)[C@]3(O)C[C@H](OC(=O)[C@H](O)[C@H](C=C(C)C)NC(=O)OC(C)(C)C)C(C)=C1C3(C)C)[C@]1(OC(C)=O)CO[C@@H]1C[C@@H]2O,0.5,,
CCC(=O)O[C@H]1C(=O)[C@@]2(C)[C@H]([C@H](OC(=O)c3cccc(F)c3)[C@]3(O)C[C@H](OC(=O)[C@H](O)[C@H](CC(C)C)NC(=O)OC(C)(C)C)C(C)=C1C3(C)C)[C@]1(OC(C)=O)CO[C@@H]1C[C@@H]2O,0.4,6,
COC(=O)O[C@H]1C(=O)[C@@]2(C)[C@H]([C@H](OC(=O)c3cccc(N=[N+]=[N-])c3)[C@]3(O)C[C@H](OC(=O)[C@H](O)[C@H](C=C(F)F)NC(=O)OC(C)(C)C)C(C)=C1C3(C)C)[C@]1(OC(C)=O)CO[C@@H]1C[C@@H]2O,,,IC50 [3]: 0.4 nM; Ratio [4]: 5.3; IC50 [5]: 0.078 nM
CCC(=O)O[C@H]1C(=O)[C@@]2(C)[C@H]([C@H](OC(=O)c3cccc(N=[N+]=[N-])c3)[C@]3(O)C[C@H](OC(=O)[C@H](O)[C@H](CC(C)C)NC(=O)OC(C)(C)C)C(C)=C1C3(C)C)[C@]1(OC(C)=O)CO[C@@H]1C[C@@H]2O,1.1,,
COc1ccc(CCC(=O)O[C@H]2C(=O)[C@@]3(C)[C@H]([C@H](OC(=O)c4ccccc4)[C@]4(O)C[C@H](OC(=O)[C@H](O)[C@H](C=C(C)C)NC(=O)OC(C)(C)C)C(C)=C2C4(C)C)[C@]2(OC(C)=O)CO[C@@H]2C[C@@H]3O)cc1,1.7,2.9,
COc1cccc(C(=O)O[C@H]2[C@@H]3[C@]4(OC(C)=O)CO[C@@H]4C[C@H](O)[C@@]3(C)C(=O)[C@H](OC(=O)C3CC3)C3=C(C)[C@@H](OC(=O)[C@H](O)[C@H](C=C(F)F)NC(=O)OC(C)(C)C)C[C@]2(O)C3(C)C)c1,,,IC50 [3]: 0.48 nM; Ratio [4]: 5.2; IC50 [5]: 0.092 nM
COc1ccccc1C(=O)O[C@H]1C(=O)[C@@]2(C)[C@H]([C@H](OC(=O)c3ccccc3)[C@]3(O)C[C@H](OC(=O)[C@H](O)[C@H](C=C(C)C)NC(=O)OC(C)(C)C)C(C)=C1C3(C)C)[C@]1(OC(C)=O)CO[C@@H]1C[C@@H]2O,2.1,2.7,
CCC(=O)O[C@H]1C(=O)[C@@]2(C)[C@H]([C@H](OC(=O)c3cccc(OC)c3)[C@]3(O)C[C@H](OC(=O)[C@H](O)[C@H](C=C(F)F)NC(=O)OC(C)(C)C)C(C)=C1C3(C)C)[C@]1(OC(C)=O)CO[C@@H]1C[C@@H]2O,,,IC50 [3]: 0.57 nM; Ratio [4]: 1.7; IC50 [5]: 0.34 nM
COc1cccc(C(=O)O[C@H]2[C@@H]3[C@]4(OC(C)=O)CO[C@@H]4C[C@H](O)[C@@]3(C)C(=O)[C@H](OC(C)=O)C3=C(C)[C@@H](OC(=O)[C@H](O)[C@H](C=C(C)C)NC(=O)OC(C)(C)C)C[C@]2(O)C3(C)C)c1,0.6,,
C=Cc1cccc(C(=O)O[C@H]2[C@@H]3[C@]4(OC(C)=O)CO[C@@H]4C[C@H](O)[C@@]3(C)C(=O)[C@H](OC(=O)CC)C3=C(C)[C@@H](OC(=O)[C@H](O)[C@H](C=C(C)C)NC(=O)OC(C)(C)C)C[C@]2(O)C3(C)C)c1,2.9,,
CC(=O)O[C@H]1C(=O)[C@@]2(C)[C@H]([C@H](OC(=O)c3cccc(C)c3)[C@]3(O)C[C@H](OC(=O)[C@H](O)[C@H](C=C(C)C)NC(=O)OC(C)(C)C)C(C)=C1C3(C)C)[C@]1(OC(C)=O)CO[C@@H]1C[C@@H]2O,1.5,,
CC(=O)O[C@@]12CO[C@@H]1C[C@H](O)[C@@]1(C)C(=O)[C@H](OC(=O)c3ccccc3)C3=C(C)[C@@H](OC(=O)[C@H](O)[C@H](C=C(C)C)NC(=O)OC(C)(C)C)C[C@@](O)([C@@H](OC(=O)c4ccccc4)[C@H]21)C3(C)C,1.8,2.7,
COc1ccc(C(=O)O[C@H]2C(=O)[C@@]3(C)[C@H]([C@H](OC(=O)c4ccccc4)[C@]4(O)C[C@H](OC(=O)[C@H](O)[C@H](C=C(C)C)NC(=O)OC(C)(C)C)C(C)=C2C4(C)C)[C@]2(OC(C)=O)CO[C@@H]2C[C@@H]3O)cc1,3.8,1.2,
CCC(=O)O[C@H]1C(=O)[C@@]2(C)[C@H]([C@H](OC(=O)c3cccc(N=[N+]=[N-])c3)[C@]3(O)C[C@H](OC(=O)[C@H](O)[C@H](C=C(C)C)NC(=O)OC(C)(C)C)C(C)=C1C3(C)C)[C@]1(OC(C)=O)CO[C@@H]1C[C@@H]2O,0.9,,
CC(=O)O[C@@]12CO[C@@H]1C[C@H](O)[C@@]1(C)C(=O)[C@H](OC(=O)CCc3ccccc3)C3=C(C)[C@@H](OC(=O)[C@H](O)[C@H](C=C(C)C)NC(=O)OC(C)(C)C)C[C@@](O)([C@@H](OC(=O)c4ccccc4)[C@H]21)C3(C)C,5.1,6.1,

SMILES,IC50 [1] [nM],Ratio [2],further results
CC(=O)O[C@@]12CO[C@@H]1C[C@H](O)[C@@]1(C)C(=O)[C@H](OC(=O)C3CC3)C3=C(C)[C@@H](OC(=O)[C@H](O)[C@H](C=C(F)F)NC(=O)OC(C)(C)C)C[C@@](O)([C@@H](OC(=O)c4cccc(N=[N+]=[N-])c4)[C@H]21)C3(C)C,,,IC50 [3]: 0.45 nM; Ratio [4]: 4.9; IC50 [5]: 0.092 nM
CC(=O)O[C@H]1C(=O)[C@@]2(C)[C@H]([C@H](OC(=O)c3cccc(N=[N+]=[N-])c3)[C@]3(O)C[C@H](OC(=O)[C@H](O)[C@H](C=C(F)F)NC(=O)OC(C)(C)C)C(C)=C1C3(C)C)[C@]1(OC(C)=O)CO[C@@H]1C[C@@H]2O,,,IC50 [3]: 0.34 nM; Ratio [4]: 3.7; IC50 [5]: 0.092 nM
CC(=O)O[C@@]12CO[C@@H]1C[C@H](O)[C@@]1(C)C(=O)[C@H](OC(=O)c3ccc4ccccc4c3)C3=C(C)[C@@H](OC(=O)[C@H](O)[C@H](C=C(C)C)NC(=O)OC(C)(C)C)C[C@@](O)([C@@H](OC(=O)c4ccccc4)[C@H]21)C3(C)C,6.3,2.4,
COc1cccc(C(=O)O[C@H]2C(=O)[C@@]3(C)[C@H]([C@H](OC(=O)c4ccccc4)[C@]4(O)C[C@H](OC(=O)[C@H](O)[C@H](C=C(C)C)NC(=O)OC(C)(C)C)C(C)=C2C4(C)C)[C@]2(OC(C)=O)CO[C@@H]2C[C@@H]3O)c1,2.8,1.8,
COc1ccccc1CC(=O)O[C@H]1C(=O)[C@@]2(C)[C@H]([C@H](OC(=O)c3ccccc3)[C@]3(O)C[C@H](OC(=O)[C@H](O)[C@H](C=C(C)C)NC(=O)OC(C)(C)C)C(C)=C1C3(C)C)[C@]1(OC(C)=O)CO[C@@H]1C[C@@H]2O,2.3,6,
CCC(=O)O[C@H]1C(=O)[C@@]2(C)[C@H]([C@H](OC(=O)c3cccc(OC)c3)[C@]3(O)C[C@H](OC(=O)[C@H](O)[C@@H](NC(=O)OC(C)(C)C)[C@H]4CC4(C)C)C(C)=C1C3(C)C)[C@]1(OC(C)=O)CO[C@@H]1C[C@@H]2O,0.48,,
COc1ccccc1CCC(=O)O[C@H]1C(=O)[C@@]2(C)[C@H]([C@H](OC(=O)c3ccccc3)[C@]3(O)C[C@H](OC(=O)[C@H](O)[C@H](C=C(C)C)NC(=O)OC(C)(C)C)C(C)=C1C3(C)C)[C@]1(OC(C)=O)CO[C@@H]1C[C@@H]2O,1.5,3.3,
COc1cccc(CC(=O)O[C@H]2C(=O)[C@@]3(C)[C@H]([C@H](OC(=O)c4ccccc4)[C@]4(O)C[C@H](OC(=O)[C@H](O)[C@H](C=C(C)C)NC(=O)OC(C)(C)C)C(C)=C2C4(C)C)[C@]2(OC(C)=O)CO[C@@H]2C[C@@H]3O)c1,2.1,9.7,
COc1cccc(C(=O)O[C@H]2[C@@H]3[C@]4(OC(C)=O)CO[C@@H]4C[C@H](O)[C@@]3(C)C(=O)[C@H](OC(=O)C3CC3)C3=C(C)[C@@H](OC(=O)[C@H](O)[C@H](C=C(C)C)NC(=O)OC(C)(C)C)C[C@]2(O)C3(C)C)c1,1,2.9,
C/C=C/[C@H](NC(=O)OC(C)(C)C)[C@@H](O)C(=O)O[C@H]1C[C@@]2(O)[C@@H](OC(=O)c3cccc(OC)c3)[C@@H]3[C@]4(OC(C)=O)CO[C@@H]4C[C@H](O)[C@@]3(C)C(=O)[C@H](OC(=O)CC)C(=C1C)C2(C)C,1.2,,
COc1cccc(CCC(=O)O[C@H]2C(=O)[C@@]3(C)[C@H]([C@H](OC(=O)c4ccccc4)[C@]4(O)C[C@H](OC(=O)[C@H](O)[C@H](C=C(C)C)NC(=O)OC(C)(C)C)C(C)=C2C4(C)C)[C@]2(OC(C)=O)CO[C@@H]2C[C@@H]3O)c1,3.7,1.8,
CC(=O)O[C@@]12CO[C@@H]1C[C@H](O)[C@@]1(C)C(=O)[C@H](O)C3=C(C)[C@@H](OC(=O)[C@H](O)[C@@H](NC(=O)OC(C)(C)C)c4ccccc4)C[C@@](O)([C@@H](OC(=O)c4ccccc4)[C@H]21)C3(C)C.O.O.O [DOCETAXEL],1,,IC50 [3]: 215 nM; IC50 [6]: 1 nM
CC(=O)O[C@@]12CO[C@@H]1C[C@H](O)[C@@]1(C)C(=O)[C@H](OC(=O)c3cccc4ccccc34)C3=C(C)[C@@H](OC(=O)[C@H](O)[C@H](C=C(C)C)NC(=O)OC(C)(C)C)C[C@@](O)([C@@H](OC(=O)c4ccccc4)[C@H]21)C3(C)C,5.3,2.9,
COC(=O)O[C@H]1C(=O)[C@@]2(C)[C@H]([C@H](OC(=O)c3cccc(OC)c3)[C@]3(O)C[C@H](OC(=O)[C@H](O)[C@H](C=C(F)F)NC(=O)OC(C)(C)C)C(C)=C1C3(C)C)[C@]1(OC(C)=O)CO[C@@H]1C[C@@H]2O,,,IC50 [3]: 0.5 nM; Ratio [4]: 6.4; IC50 [5]: 0.078 nM
CC(=O)O[C@@]12CO[C@@H]1C[C@H](O)[C@@]1(C)C(=O)[C@H](OC(=O)OCc3ccccc3)C3=C(C)[C@@H](OC(=O)[C@H](O)[C@H](C=C(C)C)NC(=O)OC(C)(C)C)C[C@@](O)([C@@H](OC(=O)c4ccccc4)[C@H]21)C3(C)C,1.8,9.3,
